In ChEMBL document CHEMBL5465560, “Selectivity Literature for EUbOPEN Chemogenomic Library” (2024) one finds % of control and % of inhibition data, which are given here for six compounds.

Experiment [1] has as its target Mitogen-activated protein kinase kinase kinase 4 (Homo sapiens) (UniProt Q9Y6R4). Kind of experiment: Selectivity interaction (KinomeScan (DiscoverX)) EUB0000607a MAP3K4. The settings on record: at 10 µM.
In experiment [2] the test system is Epidermal growth factor receptor (Homo sapiens), P00533 [UNDEFINED MUTATION]. As to the kind of experiment: Selectivity interaction (KinomeScan (DiscoverX)) EUB0001079a EGFR. To be noted: at 1 µM.
The target in experiment [3] is Serine/threonine-protein kinase PRP4 homolog (Homo sapiens) (UniProt Q13523). Kind of experiment: Selectivity interaction (ActivX KiNativ screen (kinase selectivity in THP-1 cell lysates)) EUB0000639a PRPF4. The format is subcellular. To be noted: lysate, at 0.04 µM.
In experiment [4] the target is T1, MAP kinase-activated protein kinase 5 (Homo sapiens) (UniProt Q8IW41).
T1 sequence (whole entry): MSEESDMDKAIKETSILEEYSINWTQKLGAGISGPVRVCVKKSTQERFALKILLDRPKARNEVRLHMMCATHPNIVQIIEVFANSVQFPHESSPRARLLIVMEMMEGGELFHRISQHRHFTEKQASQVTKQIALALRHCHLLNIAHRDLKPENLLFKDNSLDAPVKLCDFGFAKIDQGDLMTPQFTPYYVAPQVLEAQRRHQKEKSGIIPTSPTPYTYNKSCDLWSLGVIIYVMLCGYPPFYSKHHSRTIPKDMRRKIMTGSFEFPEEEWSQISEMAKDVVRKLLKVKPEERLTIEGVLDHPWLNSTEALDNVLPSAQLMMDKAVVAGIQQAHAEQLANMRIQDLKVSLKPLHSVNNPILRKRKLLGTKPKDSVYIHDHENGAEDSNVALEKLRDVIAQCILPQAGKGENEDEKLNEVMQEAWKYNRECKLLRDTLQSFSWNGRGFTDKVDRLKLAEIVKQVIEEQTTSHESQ
Kind of experiment: Selectivity interaction (Millipore kinase profiler) EUB0000124b MAPKAPK5. The settings on record: at 10 µM.

For experiment [5], the target named is T2, Phosphatidylinositol 3-kinase C2 domain-containing subunit gamma (Homo sapiens) (UniProt O75747).
T2 sequence (whole entry): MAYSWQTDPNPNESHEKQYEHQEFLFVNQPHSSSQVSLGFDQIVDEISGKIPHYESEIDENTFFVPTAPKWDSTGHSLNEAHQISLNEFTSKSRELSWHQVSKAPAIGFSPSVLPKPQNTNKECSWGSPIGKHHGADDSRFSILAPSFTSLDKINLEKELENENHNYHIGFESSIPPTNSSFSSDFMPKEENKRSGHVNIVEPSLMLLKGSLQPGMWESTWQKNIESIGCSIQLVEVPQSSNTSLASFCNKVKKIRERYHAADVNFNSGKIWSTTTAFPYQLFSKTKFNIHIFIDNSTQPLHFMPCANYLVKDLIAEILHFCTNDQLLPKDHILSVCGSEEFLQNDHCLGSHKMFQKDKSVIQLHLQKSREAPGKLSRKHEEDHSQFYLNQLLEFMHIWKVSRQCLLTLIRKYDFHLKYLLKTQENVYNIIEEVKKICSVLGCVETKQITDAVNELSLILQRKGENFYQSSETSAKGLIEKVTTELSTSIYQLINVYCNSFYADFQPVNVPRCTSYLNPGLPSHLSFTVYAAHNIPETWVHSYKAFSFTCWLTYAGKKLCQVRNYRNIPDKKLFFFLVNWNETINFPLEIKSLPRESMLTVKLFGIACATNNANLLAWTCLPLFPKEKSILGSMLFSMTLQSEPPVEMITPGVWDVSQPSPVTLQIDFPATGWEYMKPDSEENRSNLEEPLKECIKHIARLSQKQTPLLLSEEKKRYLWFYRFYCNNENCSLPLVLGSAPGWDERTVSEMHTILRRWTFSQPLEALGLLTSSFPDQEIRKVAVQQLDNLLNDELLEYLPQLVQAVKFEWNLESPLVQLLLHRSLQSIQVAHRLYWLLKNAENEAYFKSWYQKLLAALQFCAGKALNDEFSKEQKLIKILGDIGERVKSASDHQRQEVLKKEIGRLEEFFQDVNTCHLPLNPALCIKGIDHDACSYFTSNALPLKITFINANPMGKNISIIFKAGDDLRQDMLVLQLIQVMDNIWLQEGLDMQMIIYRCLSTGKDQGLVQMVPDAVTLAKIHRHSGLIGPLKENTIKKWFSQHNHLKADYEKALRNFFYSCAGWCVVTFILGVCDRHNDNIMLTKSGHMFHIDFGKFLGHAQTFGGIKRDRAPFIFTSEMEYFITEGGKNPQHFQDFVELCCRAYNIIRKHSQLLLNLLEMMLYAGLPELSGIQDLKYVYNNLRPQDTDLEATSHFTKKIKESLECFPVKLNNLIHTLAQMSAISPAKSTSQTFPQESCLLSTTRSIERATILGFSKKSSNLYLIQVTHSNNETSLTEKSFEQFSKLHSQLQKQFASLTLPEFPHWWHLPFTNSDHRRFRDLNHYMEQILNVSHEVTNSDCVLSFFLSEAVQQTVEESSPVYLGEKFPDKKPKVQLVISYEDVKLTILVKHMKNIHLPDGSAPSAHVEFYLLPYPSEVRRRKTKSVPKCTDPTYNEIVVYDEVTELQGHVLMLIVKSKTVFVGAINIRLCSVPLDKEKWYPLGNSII
As to the kind of experiment: Selectivity interaction (ProQinase) EUB0000171b PIK3C2G.

Experiment [6] has as its system Proto-oncogene tyrosine-protein kinase receptor Ret (Homo sapiens), P07949 [V804L]. Kind of experiment: (§1) Selectivity interaction (KinomeScan (DiscoverX)) EUB0000618a RET. To be noted: at 10 µM.
In experiment [7] the test system is Proto-oncogene tyrosine-protein kinase receptor Ret (Homo sapiens), P07949 [V804M]. The experiment is described as §1. To be noted: at 10 µM.
Experiment [8] concerns the target Proto-oncogene tyrosine-protein kinase receptor Ret (Homo sapiens, UniProt P07949). The description is as §1. The settings on record: at 10 µM.

Sequence of Proto-oncogene tyrosine-protein kinase receptor Ret (Homo sapiens), P07949 [V804M] (P07949 whole entry V804M): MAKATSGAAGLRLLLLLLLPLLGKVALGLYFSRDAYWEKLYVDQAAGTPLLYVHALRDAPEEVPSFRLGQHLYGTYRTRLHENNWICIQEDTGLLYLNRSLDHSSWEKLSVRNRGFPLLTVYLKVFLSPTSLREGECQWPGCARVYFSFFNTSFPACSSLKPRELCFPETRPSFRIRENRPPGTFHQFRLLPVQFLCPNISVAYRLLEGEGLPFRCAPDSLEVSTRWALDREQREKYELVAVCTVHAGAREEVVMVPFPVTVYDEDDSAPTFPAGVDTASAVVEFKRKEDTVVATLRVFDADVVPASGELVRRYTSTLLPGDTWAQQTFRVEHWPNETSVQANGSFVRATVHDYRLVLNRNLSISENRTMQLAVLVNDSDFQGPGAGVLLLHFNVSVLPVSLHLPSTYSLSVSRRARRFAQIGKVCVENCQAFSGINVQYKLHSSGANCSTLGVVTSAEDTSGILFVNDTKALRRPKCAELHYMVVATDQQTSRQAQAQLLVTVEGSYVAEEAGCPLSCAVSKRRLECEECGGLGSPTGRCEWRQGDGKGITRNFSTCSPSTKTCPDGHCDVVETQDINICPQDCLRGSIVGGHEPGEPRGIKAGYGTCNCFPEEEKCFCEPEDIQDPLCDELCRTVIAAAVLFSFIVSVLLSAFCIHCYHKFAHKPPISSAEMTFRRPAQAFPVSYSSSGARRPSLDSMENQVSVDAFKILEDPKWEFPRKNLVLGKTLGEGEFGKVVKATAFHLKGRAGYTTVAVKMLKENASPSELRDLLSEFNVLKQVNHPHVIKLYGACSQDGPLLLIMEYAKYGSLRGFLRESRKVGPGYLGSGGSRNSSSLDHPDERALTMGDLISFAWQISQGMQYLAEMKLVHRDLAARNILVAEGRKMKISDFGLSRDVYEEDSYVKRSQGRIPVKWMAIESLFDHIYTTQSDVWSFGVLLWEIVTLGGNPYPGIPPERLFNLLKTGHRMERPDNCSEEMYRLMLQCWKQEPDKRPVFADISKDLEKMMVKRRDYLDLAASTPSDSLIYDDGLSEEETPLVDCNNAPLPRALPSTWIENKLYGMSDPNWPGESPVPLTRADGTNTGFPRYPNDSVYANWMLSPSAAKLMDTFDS
Sequence of Mitogen-activated protein kinase kinase kinase 4 (Homo sapiens) (Q9Y6R4 whole entry): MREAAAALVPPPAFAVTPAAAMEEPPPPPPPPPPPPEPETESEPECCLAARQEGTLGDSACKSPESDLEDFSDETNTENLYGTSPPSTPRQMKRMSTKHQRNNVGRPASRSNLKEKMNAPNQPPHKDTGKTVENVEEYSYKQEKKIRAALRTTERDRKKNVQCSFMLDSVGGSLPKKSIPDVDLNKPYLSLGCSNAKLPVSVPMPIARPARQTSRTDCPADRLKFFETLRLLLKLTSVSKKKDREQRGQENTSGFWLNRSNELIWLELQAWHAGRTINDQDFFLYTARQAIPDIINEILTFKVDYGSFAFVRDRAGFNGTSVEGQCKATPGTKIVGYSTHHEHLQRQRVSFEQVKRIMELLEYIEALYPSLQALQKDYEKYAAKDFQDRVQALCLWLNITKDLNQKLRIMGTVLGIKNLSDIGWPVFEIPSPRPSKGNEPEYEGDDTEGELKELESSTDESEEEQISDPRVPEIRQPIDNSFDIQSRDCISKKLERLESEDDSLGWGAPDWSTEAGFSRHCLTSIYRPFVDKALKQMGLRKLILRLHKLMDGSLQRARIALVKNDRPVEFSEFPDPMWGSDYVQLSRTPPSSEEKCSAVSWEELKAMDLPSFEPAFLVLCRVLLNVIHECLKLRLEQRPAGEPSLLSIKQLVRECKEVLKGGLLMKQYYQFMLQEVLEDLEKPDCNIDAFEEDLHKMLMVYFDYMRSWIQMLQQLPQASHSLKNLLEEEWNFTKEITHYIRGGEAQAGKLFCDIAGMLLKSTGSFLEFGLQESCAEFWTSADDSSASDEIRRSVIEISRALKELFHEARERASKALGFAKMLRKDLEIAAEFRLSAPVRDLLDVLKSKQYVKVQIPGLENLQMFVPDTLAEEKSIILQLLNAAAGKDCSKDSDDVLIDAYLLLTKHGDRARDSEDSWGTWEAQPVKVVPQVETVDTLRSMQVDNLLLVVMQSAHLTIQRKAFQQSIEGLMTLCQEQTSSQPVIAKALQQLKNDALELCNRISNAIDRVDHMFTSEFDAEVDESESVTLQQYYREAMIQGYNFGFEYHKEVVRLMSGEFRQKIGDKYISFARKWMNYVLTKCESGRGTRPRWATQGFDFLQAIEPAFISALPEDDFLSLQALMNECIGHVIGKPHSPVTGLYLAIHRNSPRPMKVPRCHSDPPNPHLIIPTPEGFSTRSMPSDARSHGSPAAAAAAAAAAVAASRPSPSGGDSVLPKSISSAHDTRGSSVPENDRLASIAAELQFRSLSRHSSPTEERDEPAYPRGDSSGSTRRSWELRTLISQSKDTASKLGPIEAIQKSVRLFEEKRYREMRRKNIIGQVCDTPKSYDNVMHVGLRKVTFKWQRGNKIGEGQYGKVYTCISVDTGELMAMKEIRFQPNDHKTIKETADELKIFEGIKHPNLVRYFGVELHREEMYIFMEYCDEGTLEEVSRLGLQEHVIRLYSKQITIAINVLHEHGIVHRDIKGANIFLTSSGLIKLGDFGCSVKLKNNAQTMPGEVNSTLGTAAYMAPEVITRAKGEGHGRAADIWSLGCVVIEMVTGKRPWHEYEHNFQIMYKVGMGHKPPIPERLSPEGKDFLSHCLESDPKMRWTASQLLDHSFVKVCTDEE
Sequence of Epidermal growth factor receptor (Homo sapiens), P00533 [UNDEFINED MUTATION] (P00533 whole entry, looked up, change not shown): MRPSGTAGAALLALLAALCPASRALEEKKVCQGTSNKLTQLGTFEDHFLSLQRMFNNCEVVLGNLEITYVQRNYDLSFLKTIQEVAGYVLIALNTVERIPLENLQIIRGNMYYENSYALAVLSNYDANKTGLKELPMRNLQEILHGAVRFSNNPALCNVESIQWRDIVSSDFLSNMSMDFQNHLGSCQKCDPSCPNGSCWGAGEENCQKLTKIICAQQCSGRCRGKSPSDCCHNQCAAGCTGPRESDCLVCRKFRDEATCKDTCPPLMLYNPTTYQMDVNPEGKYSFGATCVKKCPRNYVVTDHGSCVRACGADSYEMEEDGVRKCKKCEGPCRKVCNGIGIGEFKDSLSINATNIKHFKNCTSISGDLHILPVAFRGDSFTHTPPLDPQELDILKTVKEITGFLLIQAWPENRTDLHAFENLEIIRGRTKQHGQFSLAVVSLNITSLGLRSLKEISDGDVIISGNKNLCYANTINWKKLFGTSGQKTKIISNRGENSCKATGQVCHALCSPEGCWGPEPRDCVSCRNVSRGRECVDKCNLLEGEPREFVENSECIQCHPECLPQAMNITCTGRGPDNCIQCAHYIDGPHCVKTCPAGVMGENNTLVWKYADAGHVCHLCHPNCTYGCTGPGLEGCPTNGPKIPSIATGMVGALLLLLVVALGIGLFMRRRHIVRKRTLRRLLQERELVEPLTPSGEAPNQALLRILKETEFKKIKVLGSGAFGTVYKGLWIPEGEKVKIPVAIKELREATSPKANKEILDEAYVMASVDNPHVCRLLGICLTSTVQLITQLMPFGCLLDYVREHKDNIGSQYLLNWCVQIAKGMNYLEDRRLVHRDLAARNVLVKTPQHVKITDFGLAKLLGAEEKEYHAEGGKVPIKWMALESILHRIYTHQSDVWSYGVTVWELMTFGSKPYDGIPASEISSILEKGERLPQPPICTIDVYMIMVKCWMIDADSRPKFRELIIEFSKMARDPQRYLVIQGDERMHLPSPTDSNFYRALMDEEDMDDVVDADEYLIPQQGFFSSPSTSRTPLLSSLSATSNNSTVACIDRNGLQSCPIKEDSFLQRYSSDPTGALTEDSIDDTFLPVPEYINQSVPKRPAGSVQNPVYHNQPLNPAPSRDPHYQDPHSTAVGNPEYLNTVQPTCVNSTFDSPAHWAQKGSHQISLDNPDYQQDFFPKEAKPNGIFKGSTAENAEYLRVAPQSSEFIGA
Sequence of Proto-oncogene tyrosine-protein kinase receptor Ret (Homo sapiens), P07949 [V804L] (P07949 whole entry V804L): as the sequence (P07949 whole entry V804M) above, with M804L counted along it
Sequence of Serine/threonine-protein kinase PRP4 homolog (Homo sapiens) (Q13523 whole entry): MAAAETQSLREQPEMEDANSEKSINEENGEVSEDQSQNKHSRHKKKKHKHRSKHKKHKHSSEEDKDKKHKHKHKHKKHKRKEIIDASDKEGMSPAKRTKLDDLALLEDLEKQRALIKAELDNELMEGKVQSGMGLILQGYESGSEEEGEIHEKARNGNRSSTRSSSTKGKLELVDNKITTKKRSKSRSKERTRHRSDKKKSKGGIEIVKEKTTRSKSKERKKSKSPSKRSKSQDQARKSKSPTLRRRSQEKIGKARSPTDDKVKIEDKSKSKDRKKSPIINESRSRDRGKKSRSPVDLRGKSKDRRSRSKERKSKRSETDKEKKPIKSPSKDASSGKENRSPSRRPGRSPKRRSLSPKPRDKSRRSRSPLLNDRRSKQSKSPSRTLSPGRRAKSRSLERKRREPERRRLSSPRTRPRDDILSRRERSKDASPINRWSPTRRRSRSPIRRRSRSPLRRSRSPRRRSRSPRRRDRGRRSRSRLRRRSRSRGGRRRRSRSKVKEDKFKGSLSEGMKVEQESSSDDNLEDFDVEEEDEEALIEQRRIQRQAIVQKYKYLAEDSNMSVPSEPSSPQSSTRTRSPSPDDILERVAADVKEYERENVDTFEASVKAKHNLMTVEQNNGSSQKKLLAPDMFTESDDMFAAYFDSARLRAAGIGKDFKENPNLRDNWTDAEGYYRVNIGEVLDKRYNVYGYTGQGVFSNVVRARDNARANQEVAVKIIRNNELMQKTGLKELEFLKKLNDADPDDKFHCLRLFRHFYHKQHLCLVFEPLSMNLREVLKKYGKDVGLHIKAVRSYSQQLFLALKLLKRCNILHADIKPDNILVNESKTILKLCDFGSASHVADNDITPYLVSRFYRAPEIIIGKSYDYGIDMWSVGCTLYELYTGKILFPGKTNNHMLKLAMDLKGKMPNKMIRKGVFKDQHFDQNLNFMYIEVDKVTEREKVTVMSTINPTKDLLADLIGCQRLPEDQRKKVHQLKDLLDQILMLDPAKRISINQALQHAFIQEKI
Sequence of Proto-oncogene tyrosine-protein kinase receptor Ret (P07949 whole entry): as the sequence (P07949 whole entry V804M) above, with M804V counted along it

In experiment [1], `CNC(=O)Nc1ccc(-c2nc(N3CC4CCC(C3)O4)c3cnn(C4CCC5(CC4)OCCO5)c3n2)cc1` displayed a % of control of 86%.
For `Nc1cnc(N2CCc3cc(S(=O)(=O)Nc4c(F)cc(Cl)cc4F)cc(N4CCCC4=O)c32)nc1` [TP-020n], the % of control in experiment [2] was found to be 100%.
Regarding `CC[C@@H]1[C@H](F)C(=O)N[C@@H]1COc1nccc2cc(C(N)=O)c(OC)cc12` [ZIMLOVISERTIB], the % of inhibition in experiment [3] is 4.1%.
The compound `CC(=O)Nc1cccc(-n2c(=O)n(C3CC3)c(=O)c3c(Nc4ccc(I)cc4F)n(C)c(=O)c(C)c32)c1` displayed a % of control in experiment [4] of 91%.
For `C=CC(=O)Nc1cccc(C(=O)Nc2ccc(Nc3cc(-c4[nH]c(SC)nc4C)ccn3)cc2)c1`, the % of control in experiment [5] (at 1 µM) was 129%; in experiment [5] (at 5 µM), 108%.
For `O[C@H]1CC[C@H](Nc2ncc3nc(Nc4c(F)cc(F)cc4F)n([C@H]4CCOC4)c3n2)CC1`, the figures for the % of control in experiment [6], in experiment [7] and in experiment [8] were 100%, 96% and 100%, respectively.
